Test results as given in ChEMBL document CHEMBL2216752, “Carnitine palmitoyltransferase (CPT) modulators: a medicinal chemistry perspective on 35 years of research” (J Med Chem, 2011).
pEC50, pIC50, pKi: −log10 of the molar value. Values belong to the molecule of their own block, whether it stands above or below them.

Experiments:
[1] = system: Rattus norvegicus; test: Inhibition of ketogenesis in 17 hrs fasted po dosed rat; assay type: functional
[2] = system: Mus musculus; test: Reduction in glucose level in db/db mouse at 30 mg/kgl/day, po for 12 days; assay type: functional; set-up: scale not given: the % may be the effect or the level left; conditions: dose 30 mg/kg
[3] = system: Mus musculus; test: Reduction in body weight in C57BL/6J mouse at 250 pmol/day, icv for 4 days; assay type: functional; set-up: scale not given: the % may be the effect or the level left
[4] = system: Mus musculus; test: Reduction in food intake in C57BL/6J mouse at 250 pmol/day, icv for 4 days; assay type: functional; set-up: scale not given: the % may be the effect or the level left
[5] = Inhibition of carnitine palmitoyltransferase in rat heart mitochondria assessed as conversion of [14C]palmitic acid to [14C]palmitoylcarnitine by radiometric assay
[6] = Inhibition of carnitine palmitoyltransferase in rat liver mitochondria assessed as conversion of [14C]palmitic acid to [14C]palmitoylcarnitine by radiometric assay
[7] = Inhibition of rat FAO
[8] = Inhibition of human FAO
[9] = biological target: T1, Carnitine O-palmitoyltransferase 2, mitochondrial (Homo sapiens, UniProt P23786); test: Inhibition of human CPT2
T1 sequence (P23786 whole entry): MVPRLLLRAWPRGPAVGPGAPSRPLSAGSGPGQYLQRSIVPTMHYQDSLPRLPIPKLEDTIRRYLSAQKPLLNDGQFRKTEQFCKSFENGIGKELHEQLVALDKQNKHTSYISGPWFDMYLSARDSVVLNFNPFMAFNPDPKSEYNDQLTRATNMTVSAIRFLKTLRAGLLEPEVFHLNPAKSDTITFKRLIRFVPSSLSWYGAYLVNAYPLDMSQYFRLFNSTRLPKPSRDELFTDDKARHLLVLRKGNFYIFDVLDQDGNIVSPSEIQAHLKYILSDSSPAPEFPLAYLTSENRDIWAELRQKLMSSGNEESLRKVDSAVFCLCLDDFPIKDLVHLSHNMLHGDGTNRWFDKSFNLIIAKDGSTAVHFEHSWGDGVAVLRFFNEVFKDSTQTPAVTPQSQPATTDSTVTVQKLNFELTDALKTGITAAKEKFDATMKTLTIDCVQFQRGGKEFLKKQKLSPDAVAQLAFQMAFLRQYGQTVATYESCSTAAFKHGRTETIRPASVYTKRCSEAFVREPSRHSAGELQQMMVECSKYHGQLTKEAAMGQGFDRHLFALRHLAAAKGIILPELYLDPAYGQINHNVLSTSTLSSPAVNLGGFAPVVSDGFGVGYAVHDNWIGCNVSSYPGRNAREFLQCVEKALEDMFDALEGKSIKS

[10] = Critical micelle concentration of compound; assay type: physicochemical
[11] = biological target: T2, Carnitine O-palmitoyltransferase 1, muscle isoform (Homo sapiens, UniProt Q92523); test: Inhibition of human CPT1B
T2 sequence (Q92523 whole entry): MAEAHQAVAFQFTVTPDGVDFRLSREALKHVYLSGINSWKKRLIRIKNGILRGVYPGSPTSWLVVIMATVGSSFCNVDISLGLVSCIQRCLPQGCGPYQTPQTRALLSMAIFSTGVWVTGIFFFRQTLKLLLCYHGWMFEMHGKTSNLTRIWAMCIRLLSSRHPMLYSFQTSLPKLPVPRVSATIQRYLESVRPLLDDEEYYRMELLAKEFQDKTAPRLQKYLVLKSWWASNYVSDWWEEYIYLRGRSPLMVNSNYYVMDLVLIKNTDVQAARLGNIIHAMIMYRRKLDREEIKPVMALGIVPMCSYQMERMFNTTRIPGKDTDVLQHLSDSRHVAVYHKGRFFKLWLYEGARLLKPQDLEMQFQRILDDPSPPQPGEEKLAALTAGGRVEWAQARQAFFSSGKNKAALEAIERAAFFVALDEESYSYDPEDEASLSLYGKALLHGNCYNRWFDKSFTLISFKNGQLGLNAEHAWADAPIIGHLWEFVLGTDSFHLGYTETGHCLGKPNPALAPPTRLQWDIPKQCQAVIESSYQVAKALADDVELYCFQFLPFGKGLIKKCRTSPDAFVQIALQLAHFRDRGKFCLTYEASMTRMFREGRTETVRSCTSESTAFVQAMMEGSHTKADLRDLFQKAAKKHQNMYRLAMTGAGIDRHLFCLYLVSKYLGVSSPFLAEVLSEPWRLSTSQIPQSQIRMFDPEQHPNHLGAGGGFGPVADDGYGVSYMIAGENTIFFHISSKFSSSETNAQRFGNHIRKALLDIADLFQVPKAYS

[12] = biological target: T3, Carnitine O-palmitoyltransferase 1, liver isoform (Homo sapiens, UniProt P50416); test: Inhibition of human CPT1A
T3 sequence (P50416 whole entry): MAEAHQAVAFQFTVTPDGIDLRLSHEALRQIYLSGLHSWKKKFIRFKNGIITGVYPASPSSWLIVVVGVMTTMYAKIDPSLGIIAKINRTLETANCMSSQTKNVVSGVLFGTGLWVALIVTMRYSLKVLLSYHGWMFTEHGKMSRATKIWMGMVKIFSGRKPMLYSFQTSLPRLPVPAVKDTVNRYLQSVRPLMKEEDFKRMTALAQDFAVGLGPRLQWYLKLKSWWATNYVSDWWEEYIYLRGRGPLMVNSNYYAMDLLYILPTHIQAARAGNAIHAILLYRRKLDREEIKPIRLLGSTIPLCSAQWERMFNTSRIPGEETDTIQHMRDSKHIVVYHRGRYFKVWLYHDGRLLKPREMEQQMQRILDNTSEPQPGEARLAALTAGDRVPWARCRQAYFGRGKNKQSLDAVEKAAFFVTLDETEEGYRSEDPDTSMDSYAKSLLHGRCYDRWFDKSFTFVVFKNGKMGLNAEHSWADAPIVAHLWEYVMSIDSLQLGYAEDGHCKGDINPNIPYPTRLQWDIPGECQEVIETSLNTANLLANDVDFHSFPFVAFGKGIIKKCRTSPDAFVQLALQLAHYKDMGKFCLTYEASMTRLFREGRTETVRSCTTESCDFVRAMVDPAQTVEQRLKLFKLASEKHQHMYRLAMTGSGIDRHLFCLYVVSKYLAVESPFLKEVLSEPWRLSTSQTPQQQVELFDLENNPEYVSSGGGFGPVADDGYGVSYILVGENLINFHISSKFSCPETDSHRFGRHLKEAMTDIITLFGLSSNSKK

[13] = biological target: Carnitine O-palmitoyltransferase 1, muscle isoform (Rattus norvegicus) (UniProt Q63704); test: Maximal inhibition of CPT1B in rat muscle mitochondria; conditions: Muscle tissue
Chain of Carnitine O-palmitoyltransferase 1, muscle isoform (Rattus norvegicus) (Q63704 whole entry, canonical isoform): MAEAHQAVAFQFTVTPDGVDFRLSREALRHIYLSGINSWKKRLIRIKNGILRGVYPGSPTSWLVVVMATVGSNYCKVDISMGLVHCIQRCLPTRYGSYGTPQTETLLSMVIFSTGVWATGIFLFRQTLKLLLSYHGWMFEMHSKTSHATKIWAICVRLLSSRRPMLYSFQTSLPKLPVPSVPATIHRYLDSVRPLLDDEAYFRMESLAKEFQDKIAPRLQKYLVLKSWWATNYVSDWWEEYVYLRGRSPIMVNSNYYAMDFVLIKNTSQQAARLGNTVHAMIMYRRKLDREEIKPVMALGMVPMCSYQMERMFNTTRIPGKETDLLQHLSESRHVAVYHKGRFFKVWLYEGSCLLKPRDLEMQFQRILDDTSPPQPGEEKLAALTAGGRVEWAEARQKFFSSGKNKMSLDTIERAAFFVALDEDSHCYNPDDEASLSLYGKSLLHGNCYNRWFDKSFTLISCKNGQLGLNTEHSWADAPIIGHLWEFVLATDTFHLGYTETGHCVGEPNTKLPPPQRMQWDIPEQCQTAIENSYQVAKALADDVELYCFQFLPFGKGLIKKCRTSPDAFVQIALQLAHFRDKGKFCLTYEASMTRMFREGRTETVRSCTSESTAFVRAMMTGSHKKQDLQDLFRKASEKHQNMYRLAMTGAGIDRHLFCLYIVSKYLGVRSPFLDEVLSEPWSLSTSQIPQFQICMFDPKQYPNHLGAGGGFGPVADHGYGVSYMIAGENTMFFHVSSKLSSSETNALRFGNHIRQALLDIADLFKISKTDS

[14] = biological target: Carnitine O-palmitoyltransferase 1, liver isoform (Rattus norvegicus) (UniProt P32198); test: Maximal inhibition of CPT1A in rat liver mitochondria
Chain of Carnitine O-palmitoyltransferase 1, liver isoform (Rattus norvegicus) (P32198 whole entry, looked up, canonical isoform): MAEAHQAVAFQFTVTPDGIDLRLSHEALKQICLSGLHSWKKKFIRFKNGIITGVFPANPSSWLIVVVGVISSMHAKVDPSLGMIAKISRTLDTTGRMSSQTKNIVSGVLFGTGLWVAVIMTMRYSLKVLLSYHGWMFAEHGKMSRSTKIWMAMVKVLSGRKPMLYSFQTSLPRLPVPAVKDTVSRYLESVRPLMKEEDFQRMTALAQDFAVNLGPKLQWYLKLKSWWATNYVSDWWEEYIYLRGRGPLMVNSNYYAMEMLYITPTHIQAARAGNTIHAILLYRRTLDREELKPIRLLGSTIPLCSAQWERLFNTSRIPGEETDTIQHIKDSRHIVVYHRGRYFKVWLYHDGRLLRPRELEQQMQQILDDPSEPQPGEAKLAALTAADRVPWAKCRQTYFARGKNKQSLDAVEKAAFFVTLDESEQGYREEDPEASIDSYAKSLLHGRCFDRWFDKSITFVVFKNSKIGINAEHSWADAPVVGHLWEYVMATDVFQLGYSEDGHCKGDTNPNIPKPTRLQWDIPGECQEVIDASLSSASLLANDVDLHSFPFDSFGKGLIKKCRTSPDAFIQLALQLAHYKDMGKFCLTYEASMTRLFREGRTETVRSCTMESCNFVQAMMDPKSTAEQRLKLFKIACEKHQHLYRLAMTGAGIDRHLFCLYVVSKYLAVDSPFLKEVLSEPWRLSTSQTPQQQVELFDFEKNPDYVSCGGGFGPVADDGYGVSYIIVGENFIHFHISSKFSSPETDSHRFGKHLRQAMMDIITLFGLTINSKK

[15] = biological target: T4, Carnitine O-palmitoyltransferase 1, liver isoform (Homo sapiens) (UniProt P50416); test: Increase in CPT1A activity in hepatocytes at 60 uM; assay type: cell-based; conditions: Hepatocyte
T4 sequence (whole entry): T3 sequence (P50416 whole entry)

[16] = system: Hepatocyte; test: Stimulation of FAO in hepatocytes at 28 uM; assay type: cell-based
[17] = biological target: T4, Carnitine O-palmitoyltransferase 1, liver isoform (Homo sapiens); test: Increase in CPT1 activity in human MCF7 cells assessed as increase in radiolabeled palmitoylcarnitine relative to untreated control; assay type: cell-based
[18] = biological target: T3, Carnitine O-palmitoyltransferase 1, liver isoform; test: Increase in CPT1 activity in human MCF7 cells assessed as increase in radiolabeled palmitoylcarnitine; assay type: cell-based
[19] = biological target: T4, Carnitine O-palmitoyltransferase 1, liver isoform (Homo sapiens); test: Increase in CPT1 activity in human MCF7 cells assessed as increase in radiolabeled palmitoylcarnitine at 31 uM; assay type: cell-based
[20] = system: Rattus norvegicus; test: Toxicity in rat assessed as induction of heart muscle enlargement at 200 mg/kg/day for 12 weeks administered through food admix; assay type: organism-based, Muscle tissue; conditions: in vivo, 2016 h
[21] = biological target: T1, Carnitine O-palmitoyltransferase 2, mitochondrial; test: Competitive inhibition of CPT2 in liver mitochondria using carnitine
[22] = biological target: T1, Carnitine O-palmitoyltransferase 2, mitochondrial; test: Competitive inhibition of CPT2 in heart mitochondria using carnitine
[23] = biological target: T1, Carnitine O-palmitoyltransferase 2, mitochondrial; test: Competitive inhibition of CPT2

Compound: C=CCC1(CC=C)C(=O)S[C@](C)(CCCCCCCC)C1=O
Activity [15]: 150% | Activity [16]: 150% | Activity [17]: 140% | pEC50 [18]: 5.52 | Activity [19]: 177%

Compound: O=C([O-])[C@@]1(CCCCCc2ccc(Cl)cc2)CO1.[Na+] [CLOMIXIR]
Activity [20]: 15%

The next lines start with results.

pIC50 [5]: 5.26 | pIC50 [6]: 6.89 | pIC50 [7]: 7.52 | pIC50 [8]: 6.14 | pIC50 [9]: 5.27 | CMC [10]: 0.79 mM | pIC50 [11]: 4.07 | pIC50 [12]: 5.77
Compound: CCCCCCOc1cccc(OCCCCNC(=O)N[C@H](CC(=O)[O-])C[N+](C)(C)C)c1
ED50 [1]: 3.7 mg/kg | Activity [2]: 41% | Activity [3]: 7% | Activity [4]: 25%

Imax [13]: > 60 µM | Imax [14]: 5 µM
Compound: O=C(O)[C@@]1(CCCCCCOc2ccc([N+](=O)[O-])cc2[N+](=O)[O-])CO1

pKi [21]: 5.38 | pKi [22]: 5.55 | pKi [23]: 6.80
Compound: CCCCCCCCCCCCCCC[C@@]1(O)C[N+](C)(C)C[C@@H](CC(=O)[O-])O1 (racemic)
